In patent US20050176655A1, “Novel macrolide derivatives havaing effect of potentiating antifungal activity” (priority 2002, published 2005):

Key:
Experiment in all cases: Paper disk method, enhancing action for activities of azole antifungal agents
Format in all cases: cell-based
[1] = test system: fluconazole resistant Candida albicans ATCC 64550; settings: 24 hours; for Inhibition activity (inhibition ring mm) C. albicans ATCC 64550 GYM / Transparency of the inhibition ring C. albicans ATCC 64550 GYM: miconazole 0.15 μg/ml; for Inhibition activity (inhibition ring mm) C. albicans ATCC 64550 GYF / Transparency of the inhibition ring C. albicans ATCC 64550 GYF: fluconazole 30 μg/ml
Experimental: Test organisms used were Candida albicans ATCC 64548, fluconazole resistant Candida albicans ATCC 64550 and Aspergillus niger ATCC 6275. Candida spp. were cultured in Waksman broth (glucose 2.0%, peptone 0.5%, dry yeast 0.3%, meat extract 0.5%, NaCl 0.5% and CaCO3 0.3%, pH 7.0) at 27° C. for 40 hours, then 0.1% thereof was inoculated on GY agar medium (glucose 1.0%, yeast extract 0.5% and agar 0.8%, pH 6.0). Spore suspension 0.2% of Aspergillus niger ATCC 6275 was inoculated on GY agar medium.
Azole antifungal agents used were miconazole (Sigma Inc., the U.S.) and fluconazole (ICN Pharmaceuticals, Inc., the U.S.), and were added at concentrations without affecting growth on each test organisms follows.
Candida albicans ATCC 64550: miconazole 0.15 μg/ml or fluconazole 30 μg/ml.
In the above medium, a medium added with miconazole to GY medium (control) is designated as GYM, and a medium added with fluconazole is designated as GYF. Activities were assessed by means of paper disk method (thickness: 8 mm, ADVANTEC MFS INC., Japan). Diameter of inhibition ring is expressed with mm unit after culturing Candida spp. for 24 hours and Aspergillus niger ATCC 6275 for 48 hours. Transparency of the inhibition ring is assessed with 5 degrees of A, B, C, D and E (transparence<A<B<C<D<E<opaque).

[2] = test system: Candida albicans ATCC 64548; settings: 24 hours; for Inhibition activity (inhibition ring mm) C. albicans ATCC 64548 GYM / Transparency of the inhibition ring C. albicans ATCC 64548 GYM: miconazole 0.03 μg/ml; for Inhibition activity (inhibition ring mm) C. albicans ATCC 64548 GYF / Transparency of the inhibition ring C. albicans ATCC 64548 GYF: fluconazole 0.5 μg/ml
Method in brief: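 GY agar (pH 6.0) seeded with C. albicans ATCC 64548 precultured in Waksman broth at 27° C for 40 hours, supplemented with sub-growth-inhibitory miconazole 0.03 μg/ml or fluconazole 0.5 μg/ml. Paper disk method; inhibition-zone diameter (mm) read after 24 hours, transparency graded A–E.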

[3] = test system: Aspergillus niger ATCC 6275; settings: 48 hours; for Inhibition activity (inhibition ring mm) A. niger ATCC 6275 GYM / Transparency of the inhibition ring A. niger ATCC 6275 GYM: miconazole 0.1 μg/ml; for Inhibition activity (inhibition ring mm) A. niger ATCC 6275 GY / Transparency of the inhibition ring A. niger ATCC 6275 GY: GY medium (control, no azole); for Inhibition activity (inhibition ring mm) A. niger ATCC 6275 GYF / Transparency of the inhibition ring A. niger ATCC 6275 GYF: fluconazole 10 μg/ml
Method in brief: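 Paper-disk assay on A. niger ATCC 6275 spores (0.2%) seeded on GY agar pH 6.0. After 48 h, inhibition-zone diameter recorded in mm and transparency graded A (transparent) to E (opaque).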

| SMILES | Inhibition activity (inhibition ring mm) C. albicans ATCC 64550 GYM ([1]; 100 μg/8 mm disk) | Transparency of the inhibition ring C. albicans ATCC 64550 GYM ([1]; 100 μg/8 mm disk) | Inhibition activity (inhibition ring mm) C. albicans ATCC 64548 GYM ([2]; 100 μg/8 mm disk) | Transparency of the inhibition ring C. albicans ATCC 64548 GYM ([2]; 100 μg/8 mm disk) | Inhibition activity (inhibition ring mm) A. niger ATCC 6275 GYM ([3]; 50 μg/8 mm disk) | Transparency of the inhibition ring A. niger ATCC 6275 GYM ([3]; 50 μg/8 mm disk) | Inhibition activity (inhibition ring mm) C. albicans ATCC 64550 GYF ([1]; 10 μg/8 mm disk) | Transparency of the inhibition ring C. albicans ATCC 64550 GYF ([1]; 10 μg/8 mm disk) | Inhibition activity (inhibition ring mm) C. albicans ATCC 64550 GYF ([1]; 50 μg/8 mm disk) | Transparency of the inhibition ring C. albicans ATCC 64550 GYF ([1]; 50 μg/8 mm disk) | Inhibition activity (inhibition ring mm) C. albicans ATCC 64550 GYM ([1]; 50 μg/8 mm disk) | Transparency of the inhibition ring C. albicans ATCC 64550 GYM ([1]; 50 μg/8 mm disk) | Inhibition activity (inhibition ring mm) C. albicans ATCC 64548 GYF ([2]; 10 μg/8 mm disk) | Transparency of the inhibition ring C. albicans ATCC 64548 GYF ([2]; 10 μg/8 mm disk) | Inhibition activity (inhibition ring mm) C. albicans ATCC 64548 GYM ([2]; 10 μg/8 mm disk) | Transparency of the inhibition ring C. albicans ATCC 64548 GYM ([2]; 10 μg/8 mm disk) | Inhibition activity (inhibition ring mm) C. albicans ATCC 64548 GYF ([2]; 50 μg/8 mm disk) | Transparency of the inhibition ring C. albicans ATCC 64548 GYF ([2]; 50 μg/8 mm disk) | Inhibition activity (inhibition ring mm) C. albicans ATCC 64548 GYM ([2]; 50 μg/8 mm disk) | Transparency of the inhibition ring C. albicans ATCC 64548 GYM ([2]; 50 μg/8 mm disk) | other results |
| --- | --- | --- | --- | --- | --- | --- | --- | --- | --- | --- | --- | --- | --- | --- | --- | --- | --- | --- | --- | --- | --- |
| CCC(OC(C)=O)C(C)(O)C1OC(=O)C(C)C(OC2CC(C)(OC)C(OC(C)=O)C(C)O2)C(C)C(OC2OC(C)CC(N(C)C)C2O)C2(C)CC(C)=C(O2)C1C (stereo not shown) [Compound 755, 4″,13-Di-O-acetyl-8,9-Anhydro-pseudo erythromycin A 6,9-hemiketal] | 10 mm | E (Growth of test organism was inhibited 35% or less.) | 17 mm | D (Growth of test organism was inhibited 35% or more and 55% or less.) | 16 mm | E (Growth of test organism was inhibited 35% or less.) |  |  |  |  |  |  |  |  |  |  |  |  |  |  |  |
| CCCCCC(=O)OC1C(C)OC(OC2C(C)C(=O)OC(C(C)(O)C(CC)OC(=O)CCCCC)C(C)C3=C(C)CC(C)(O3)C(OC3OC(C)CC(N(C)CC)C3O)C2C)CC1(C)OC (stereo not shown) [Compound 853, 4″,13-Di-O-hexanoyl-de(3′-N-methyl)-N-ethyl-8,9-Anhydro-pseudoerythromycin A 6,9-hemiketal] | 16 mm | A (Growth of test organism was inhibited 95% or more.) | 15 mm | A (Growth of test organism was inhibited 95% or more.) | 15 mm | B (Growth of test organism was inhibited 75% of more and 95% or less.) | 11 mm | D (Growth of test organism was inhibited 35% or more and 55% or less.) | 14 mm | A (Growth of test organism was inhibited 95% or more.) | 15 mm | A (Growth of test organism was inhibited 95% or more.) | 9 mm | E (Growth of test organism was inhibited 35% or less.) | 10 mm | B (Growth of test organism was inhibited 75% of more and 95% or less.) | 14 mm | B (Growth of test organism was inhibited 75% of more and 95% or less.) | 14 mm | A (Growth of test organism was inhibited 95% or more.) | Inhibition activity (inhibition ring mm) C. albicans ATCC 64550 GYF ([1]; 100 μg/8 mm disk): 15 mm; Transparency of the inhibition ring C. albicans ATCC 64550 GYF ([1]; 100 μg/8 mm disk): A (Growth of test organism was inhibited 95% or more.); Inhibition activity (inhibition ring mm) C. albicans ATCC 64548 GYF ([2]; 100 μg/8 mm disk): 16 mm; Transparency of the inhibition ring C. albicans ATCC 64548 GYF ([2]; 100 μg/8 mm disk): B (Growth of test organism was inhibited 75% of more and 95% or less.); Inhibition activity (inhibition ring mm) A. niger ATCC 6275 GY ([3]; 10 μg/8 mm disk): 10 mm; Transparency of the inhibition ring A. niger ATCC 6275 GY ([3]; 10 μg/8 mm disk): E (Growth of test organism was inhibited 35% or less.); Inhibition activity (inhibition ring mm) A. niger ATCC 6275 GYF ([3]; 10 μg/8 mm disk): 9 mm; Transparency of the inhibition ring A. niger ATCC 6275 GYF ([3]; 10 μg/8 mm disk): E (Growth of test organism was inhibited 35% or less.); Inhibition activity (inhibition ring mm) A. niger ATCC 6275 GYM ([3]; 10 μg/8 mm disk): 10 mm; Transparency of the inhibition ring A. niger ATCC 6275 GYM ([3]; 10 μg/8 mm disk): E (Growth of test organism was inhibited 35% or less.); Inhibition activity (inhibition ring mm) A. niger ATCC 6275 GY ([3]; 50 μg/8 mm disk): 12 mm; Transparency of the inhibition ring A. niger ATCC 6275 GY ([3]; 50 μg/8 mm disk): D (Growth of test organism was inhibited 35% or more and 55% or less.); Inhibition activity (inhibition ring mm) A. niger ATCC 6275 GYF ([3]; 50 μg/8 mm disk): 13 mm; Transparency of the inhibition ring A. niger ATCC 6275 GYF ([3]; 50 μg/8 mm disk): B (Growth of test organism was inhibited 75% of more and 95% or less.); Inhibition activity (inhibition ring mm) A. niger ATCC 6275 GY ([3]; 100 μg/8 mm disk): 13 mm; Transparency of the inhibition ring A. niger ATCC 6275 GY ([3]; 100 μg/8 mm disk): D (Growth of test organism was inhibited 35% or more and 55% or less.); Inhibition activity (inhibition ring mm) A. niger ATCC 6275 GYF ([3]; 100 μg/8 mm disk): 14 mm; Transparency of the inhibition ring A. niger ATCC 6275 GYF ([3]; 100 μg/8 mm disk): B (Growth of test organism was inhibited 75% of more and 95% or less.); Inhibition activity (inhibition ring mm) A. niger ATCC 6275 GYM ([3]; 100 μg/8 mm disk): 16 mm; Transparency of the inhibition ring A. niger ATCC 6275 GYM ([3]; 100 μg/8 mm disk): B (Growth of test organism was inhibited 75% of more and 95% or less.) |
| CCCCCC(=O)OC1C(C)OC(OC2C(C)C(=O)OC(C(C)(O)C(CC)OC(=O)CCCCC)C(C)C3=C(C)CC(C)(O3)C(OC3OC(C)CC(N(C)C)C3OC(C)=O)C2C)CC1(C)OC (stereo not shown) [Compound 772, 2′-O-acetyl-4″,13-Di-O-hexanoyl-8,9-Anhydro-pseudoerythromycin A 6,9-hemiketal] |  |  |  |  | 13 mm | A (Growth of test organism was inhibited 95% or more.) | 11 mm | E (Growth of test organism was inhibited 35% or less.) | 14 mm | B (Growth of test organism was inhibited 75% of more and 95% or less.) | 12 mm | A (Growth of test organism was inhibited 95% or more.) | 9 mm | D (Growth of test organism was inhibited 35% or more and 55% or less.) | 14 mm | B (Growth of test organism was inhibited 75% of more and 95% or less.) | 10 mm | D (Growth of test organism was inhibited 35% or more and 55% or less.) | 12 mm | B (Growth of test organism was inhibited 75% of more and 95% or less.) | Inhibition activity (inhibition ring mm) A. niger ATCC 6275 GYF ([3]; 10 μg/8 mm disk): 10 mm; Transparency of the inhibition ring A. niger ATCC 6275 GYF ([3]; 10 μg/8 mm disk): D (Growth of test organism was inhibited 35% or more and 55% or less.); Inhibition activity (inhibition ring mm) A. niger ATCC 6275 GYM ([3]; 10 μg/8 mm disk): 12 mm; Transparency of the inhibition ring A. niger ATCC 6275 GYM ([3]; 10 μg/8 mm disk): E (Growth of test organism was inhibited 35% or less.); Inhibition activity (inhibition ring mm) A. niger ATCC 6275 GY ([3]; 50 μg/8 mm disk): 12 mm; Transparency of the inhibition ring A. niger ATCC 6275 GY ([3]; 50 μg/8 mm disk): E (Growth of test organism was inhibited 35% or less.); Inhibition activity (inhibition ring mm) A. niger ATCC 6275 GYF ([3]; 50 μg/8 mm disk): 10 mm; Transparency of the inhibition ring A. niger ATCC 6275 GYF ([3]; 50 μg/8 mm disk): D (Growth of test organism was inhibited 35% or more and 55% or less.) |
